This note sets out measurements from PubChem BioAssay AID2060501 (Molecular Pharmacology Branch, DTP, NCI, 2025).

In general, pIC50 refers to the negative decadic logarithm of the IC50, by convention in mol/L. As usually defined, the viability, T/C is the ratio of treated to control.

pIC50: −log10 of the molar value. Several values for one entry are separate records, joined by “and”; a condition that tells them apart may be missing. Equal entries are not always repeated.

This assay has as its system 282377-053-R-J1-PDC complex spheroids, viability. Kind of assay: Anticancer human tumor 282377-053-R-J1-PDC patient-derived colon adenocarcinoma cell line growth inhibition [GQUAD]. To be noted: for viability, T/C: stronger effect = lower value. An excerpt: DNA G-quadruplex Stabilizer Agents in Combinations in Complex Spheroids
A high-throughput screen of multi-cell type tumor spheroids was designed to identify active combinations of DNA G-quadruplex stabilizer agents and targeted small molecules. Complex spheroids include a stromal component modeled by human endothelial cells (HUVEC) and fibroblasts modeled by human mesenchymal stem cells (MSCs). The concentration ranges selected for each drug and investigational agent were based upon clinically achievable concentrations if the clinical Cmax of the agent was known.
Compounds. The drugs and investigational agents: pidnarulex (CX-5461; NSC782164), APTO-253 (NSC789042), BRACO-19 (NSC847499), peposertib (NSC802822), ceralasertib (NSC780249), elimusertib (NSC800525), camonsertib (NSC841442), AZD-1390 (NSC803789), olaparib (NSC753686), talazoparib (NSC767125), ART-558 (NSC835418), sotorasib (NSC818433), MRTX-1133 (NSC836407), SN-38 (NSC673596), topotecan (NSC609699), etoposide (NSC141540), doxorubicin (NSC123127), gemcitabine (NSC613327), 5-fluorouracil (NSC19893), paclitaxel (NSC125973), vemurafenib (NSC761431), panobinostat (NSC761190), R-306465 (JNJ-16241199; NSC773264), adavosertib (NSC754352), TP-3654 (NSC805149), carboplatin (NSC241240), KSQ-4279 (NSC840948), and staurosporine (NSC755774) were obtained from the National Cancer Institute (NCI) Developmental Therapeutics Program Chemical Repository (34). The FDA-approved anticancer drug set is available from the NCI Developmental Therapeutics Program. […] The stock solutions were prepared in dimethyl sulfoxide (DMSO, Sigma-Aldrich, St. Louis, MO, cat. D2650) at 800-fold the tested concentration and stored at -70 degrees C prior to their use. All drugs and investigational agents were tested over a range starting from a high concentration at or near the clinical Cmax and decreasing in half-log increments. If the clinical Cmax for an agent had not been determined, the highest concentration tested was 10 microM.
2.3 Cell Culture. All cells were maintained in an incubator at 37 degrees C and 5% CO2 with 95% humidity. The PDC lines were cultured according to standard operating procedures established by the NCI PDMR. All PDCs were thawed and cultured in Matrigel-coated flasks prepared with a working solution of 1X Ham's F-12 nutrient mix, without supplementation (Invitrogen, cat. 11765054), 100 U/mL penicillin-streptomycin (Invitrogen, cat. 15140122), and 2.5% Matrigel (Corning Inc., cat. 354248) for the first three passages. The 857933-349-R-J2-PDC line was cultured in 6C/Colon 1B media, which includes advanced DMEM/F-12 (Thermo Fisher Scientific, cat. 12634028), 10 mM HEPES (Thermo Fisher Scientific, cat. 15630080), 1X GlutaMAX supplement (Thermo Fisher Scientific, cat. 35050061), 0.1 mg/mL primocin (InvivoGen, cat. ant-pm-2), 10% defined fetal bovine serum, heat inactivated (HyClone Laboratories Inc., cat. SH30070.03HI), 50% L-WRN conditioned media (ATCC, cat. CRL-3276), 1.25 mM N-Acetyl-L-cysteine (Sigma-Aldrich, cat. A9165), 10 mM nicotinamide (Sigma-Aldrich, cat. N0636), 1X B-27 supplement (Thermo Fisher Scientific, cat. 17504044), 1X N-2 supplement (Thermo Fisher Scientific, cat. 17502048), 10 microM Y-27632 dihydrochloride (Tocris Bioscience, cat. 1254), and 50 ng/mL human EGF recombinant protein (Thermo Fisher Scientific, cat. PHG0311). The 485176-168-R4-J1-PDC line was cultured in Panc media, which includes all 6C/Colon 1B media components plus 100 ng/mL human FGF-10 (Thermo Fisher Scientific, cat. 100-26), 500 nM SB-431542 (Selleckchem, cat. S1067), and gastrin (Tocris, cat. 3006).
[…]
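Further: spheroids exposed to compounds for 7 days before readout.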
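Wherever viability, T/C is given: percent of vehicle DMSO control viability with 100% = untreated-like growth.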

Consider `O=c1[nH]cc(F)c(=O)[nH]1` + Cc1[nH]c2ccc(F)cc2c1-c1nc2c3cccnc3c3ncccc3c2[nH]1, for which the pIC50 (curve of first compound, second compound 0.0316 µM) was less than 5.00; the negative logarithm of the IC50 (pIC50) (curve of first compound, second compound 0.1 µM) is less than 5.00; the pIC50 (curve of first compound, second compound 0.316 µM) was less than 5.00; the pIC50 (curve of first compound, second compound 1 µM) was less than 5.00; the pIC50 (curve of first compound, second compound 3.16 µM) was less than 5.00; the pIC50 (curve of first compound, second compound 10 µM) is more than 7.50. Also, the viability, T/C runs as follows: (second compound 0.0316 µM, first compound 0.0316 µM) 92.8%; (second compound 0.0316 µM, first compound 0.1 µM) 104%; (second compound 0.0316 µM, first compound 0.316 µM) 126%; (second compound 0.0316 µM, first compound 1 µM) 88.8%; (second compound 0.0316 µM, first compound 3.16 µM) 78.2%; (second compound 0.0316 µM, first compound 10 µM) 74%. The viability, T/C (second compound 0.1 µM, first compound 0.0316 µM) is 110%; the viability, T/C (second compound 0.1 µM, first compound 0.1 µM) was 111%; the viability, T/C (second compound 0.1 µM, first compound 0.316 µM) was 114%; the viability, T/C (second compound 0.1 µM, first compound 1 µM) is 87.5%; the viability, T/C (second compound 0.1 µM, first compound 3.16 µM) is 84.1%; the viability, T/C (second compound 0.1 µM, first compound 10 µM) was 82%. Also, the viability, T/C was 115% (second compound 0.316 µM, first compound 0.0316 µM); 106% (second compound 0.316 µM, first compound 0.1 µM); 93.7% (second compound 0.316 µM, first compound 0.316 µM); 95.1% (second compound 0.316 µM, first compound 1 µM); 75.8% (second compound 0.316 µM, first compound 3.16 µM); 69.3% (second compound 0.316 µM, first compound 10 µM). Further, the viability, T/C is, setting by setting: (second compound 1 µM, first compound 0.0316 µM) 108%; (second compound 1 µM, first compound 0.1 µM) 112%; (second compound 1 µM, first compound 0.316 µM) 117%; (second compound 1 µM, first compound 1 µM) 91.2%; (second compound 1 µM, first compound 3.16 µM) 76.4%; (second compound 1 µM, first compound 10 µM) 68.4%. Further, the viability, T/C was 75.7% (second compound 3.16 µM, first compound 0.0316 µM); 80.2% (second compound 3.16 µM, first compound 0.1 µM); 72% (second compound 3.16 µM, first compound 0.316 µM); 49.9% (second compound 3.16 µM, first compound 1 µM); 58.8% (second compound 3.16 µM, first compound 3.16 µM); 54.1% (second compound 3.16 µM, first compound 10 µM). For the same molecule, the viability, T/C (second compound 10 µM, first compound 0.0316 µM) was 41.1%; the viability, T/C (second compound 10 µM, first compound 0.1 µM) is 40.5%; the viability, T/C (second compound 10 µM, first compound 0.316 µM) was 50.8%; the viability, T/C (second compound 10 µM, first compound 1 µM) is 42%; the viability, T/C (second compound 10 µM, first compound 3.16 µM) was 40%; the viability, T/C (second compound 10 µM, first compound 10 µM) was 34.4%.

Take `Cc1cnc(CNC(=O)c2c(=O)c3ccc(N4CCCN(C)CC4)nc3n3c2sc2ccccc23)cn1`: the viability, T/C (compound 1 µM) is 64.5% [middle of 12 runs]; the viability, T/C (compound 3.16 µM) is 57.2% [middle of 12 runs]; the viability, T/C (compound 10 µM) is 55.2% [middle of 12 runs].

Turning to `Cn1ncnc1[C@H]1c2n[nH]c(=O)c3cc(F)cc(c23)N[C@@H]1c1ccc(F)cc1`, the viability, T/C by setting is: (compound 0.000999 µM) 109% and 105% and 89.3%; (compound 0.00316 µM) 106% and 88.2% and 91.4%; (compound 0.00999 µM) 106% and 94.9% and 99.7%; (compound 0.0316 µM) 85% and 109% and 106%; (compound 0.0999 µM) 106% and 97.6% and 113%; (compound 0.316 µM) 96.5% and 113% and 105%. Moreover, for the setting “curve of compound”, the pIC50 is less than 6.50.

With `O=C(NO)c1cnc(N2CCN(S(=O)(=O)c3ccc4ccccc4c3)CC2)nc1`, the viability, T/C runs as follows: (compound 0.0316 µM) 58.1% and 117% and 100%; (compound 0.1 µM) 20% and 107% and 82%; (compound 0.316 µM) 22.4% and 79.1% and 64.8%; (compound 1 µM) 21.8% and 2.34% and 0.84%; (compound 3.16 µM) 24.6% and 0.24% and 0.11%; (compound 10 µM) 25.1% and 0.26% and 0.18%.

Regarding `COc1ccc([C@@H](O)c2cc(-c3ncnc4cc(N5CCOCC5)ccc34)c(F)cc2Cl)nn1`, the viability, T/C (compound 0.0316 µM) was 86.5% and 96.3% and 89.9%; the viability, T/C (compound 0.1 µM) was 85.6% and 80.6% and 90.8%; the viability, T/C (compound 0.316 µM) was 74.5% and 109% and 86.2%; the viability, T/C (compound 1 µM) is 67.9% and 79.6% and 93.6%; the viability, T/C (compound 3.16 µM) is 68.9% and 82.5% and 101%; the viability, T/C (compound 10 µM) was 57.6% and 61.8% and 71.7%. Where the note is “curve of compound”, the pIC50 was less than 5.00.

As for `CC1COCCN1c1cc(-c2ccnn2C)c2ccnc(-c3ccn[nH]3)c2n1` (stereo unspecified), the viability, T/C by setting is: (compound 0.0316 µM) 76.8% and 96.3% and 95.7%; (compound 0.1 µM) 80.2% and 78.9% and 53%; (compound 0.316 µM) 61.4% and 49% and 55.4%; (compound 1 µM) 43.9% and 49.3% and 38.2%; (compound 3.16 µM) 29.3% and 33% and 26.9%; (compound 10 µM) 20.9% and 28.2% and 23.2%. The negative-log IC50 (pIC50) (curve of compound) was 6.16 and 6.26 and 6.61.

Consider `CC1COCCN1c1cc(C2(S(C)(=N)=O)CC2)nc(-c2ccnc3[nH]ccc23)n1` (stereo unspecified), for which the viability, T/C runs as follows: (compound 0.0316 µM) 96.3% and 86.8% and 105%; (compound 0.1 µM) 101% and 80.1% and 81.3%; (compound 0.316 µM) 100% and 97.5% and 101%; (compound 1 µM) 62.2% and 81.9% and 77.9%; (compound 3.16 µM) 86.1% and 70.7% and 78.6%; (compound 10 µM) 42.4% and 60.9% and 49.9%. Besides, the pIC50 (curve of compound) is 5.08 and < 5.00.

As for `CCCS(=O)(=O)Nc1ccc(F)c(C(=O)c2c[nH]c3ncc(-c4ccc(Cl)cc4)cc23)c1F`, the viability, T/C reads like this: (compound 0.0316 µM) 117% and 88.2% and 74.2%; (compound 0.1 µM) 76.3% and 55.9% and 63.7%; (compound 0.316 µM) 90.1% and 68.8% and 55.6%; (compound 1 µM) 75.6% and 74.8% and 57.6%; (compound 3.16 µM) 29.3% and 72.3% and 66.7%; (compound 10 µM) 17.7% and 16.4% and 14.4%. In addition, the negative-log IC50 (pIC50) (curve of compound) is 5.72 and 5.30 and 5.36.
